Data from paper PMC9267059, “Selective Inhibition of Murine Cytomegalovirus Viral Gene Expression by the Antiviral Peptide TAT-I24” (International Journal of Molecular Sciences, 2022).

Assays:
double-stranded DNA [1] = settings: cited from earlier work
Protocol: To determine whether reduction of host-gene expression early after MCMV infection is related to the ability of the peptide to bind DNA, variants of TAT-I24 were generated with modifications of the TAT fusion partner (Figure 5A). The peptides were tested for their potency in inhibiting MCMV replication and their binding to DNA. […] Inhibition is independent of whether these are immediate-early, early or late genes, as they were all reduced to a similar extent, thereby excluding a specific effect of the peptide on a particular viral gene.

[2] = system: host-cell transcripts in NIH/3T3 cells infected with MCMV; experiment: Host-cell transcript levels by quantitative PCR in MCMV-infected NIH/3T3 cells; format: cell-based; settings: for Ccl5 expression, comparison of peptides / Ccl7 expression, comparison of peptides / Ifit1 expression, comparison of peptides: MCMV MOI 1, 2 h post-infection, four independent experiments
[3] = system: MCMV viral gene expression; experiment: MCMV viral gene transcript levels by quantitative PCR relative to Gapdh; format: cell-based, murine cytomegalovirus; settings: for ie1 transcript levels, comparison of peptides: NIH/3T3, MCMV MOI 1, 2 h post-infection
Protocol: NIH/3T3 fibroblasts were infected with MCMV expressing luciferase at low MOI (MOI 1) with the aid of centrifugal enhancement. Infections were performed either in the absence or presence of 10 µM TAT-I24. Cells were lysed after 30 min or 2-, 4-, 8- and 24-h post-infection. Total RNA was isolated and treated with DNase I to remove viral DNA before synthesis of the cDNA. Levels of viral transcripts were then analyzed by quantitative PCR and normalized to mRNA levels of the glyceraldehyde-3-phosphate dehydrogenase (Gapdh) housekeeping gene.
NIH/3T3 cells were seeded at a density of 8 × 10^4 cells/well of a 24-well plate and allowed to attach overnight. On the next day, MCMV strain delm157-luc rep was adsorbed to cells (MOI 1) in the absence or presence of 10 µM TAT-I24 and centrifuged twice at 800× g for 15 min. Cells were then kept at 37 °C and lysed after the indicated time-points.

double-stranded DNA [4] = experiment: DNA binding assay (fluorescence reduction of SYBR Gold-stained plasmid DNA); settings: three independent experiments performed in duplicates
Protocol: Binding of peptides to double-stranded DNA was determined by reduction of fluorescence from SYBR® Gold-stained plasmid DNA as described previously.

[5] = system: mouse cytomegalovirus (CMV); settings: cited from earlier work
[6] = system: respiratory syncytial virus (RSV); settings: cited from earlier work
Excerpt: (§1) We have described the novel antiviral peptide TAT-I24, a fusion of the 9-mer peptide I24 and the TAT peptide, which exerts broad-spectrum activity against several double-stranded DNA viruses. […] The antiv ...

[7] = system: human cytomegalovirus (CMV); settings: cited from earlier work
Excerpt: as §1

[8] = system: human immunodeficiency virus-1 (HIV-1); settings: cited from earlier work
Excerpt: as §1

herpes simplex virus = settings: cited from earlier work
Excerpt: as §1

some adenoviruses = settings: cited from earlier work
Excerpt: as §1

[9] = system: non-replicating baculovirus; settings: mammalian cells; cited from earlier work
Excerpt: as §1

SV40 polyomavirus = settings: cited from earlier work
Excerpt: as §1

vaccinia virus = settings: cited from earlier work
Excerpt: as §1

NIH/3T3 cells [10] = settings: 20 µM; cited from earlier work
Excerpt: (§2) This strain was also used in the present investigation. […] However, with increasing concentrations of TAT-I24, the cytopathic effects caused by the virus infection were inhibited (Figure 1A).

BrdU-labelled MCMV DNA = experiment: Staining of BrdU-labelled MCMV DNA in NIH/3T3 cells; format: cell-based, murine cytomegalovirus
Protocol: When infection of cells is performed with MCMV labelled with bromodeoxyuridine (BrdU), a clear reduction in BrdU-labelled genomes in TAT-I24-treated cells can be observed. It was speculated that this was due to the interaction of the peptide with the viral DNA, leading to the prevention of BrdU-antibody binding. This was further supported by the observation that the incubation of cells with TAT-I24 after fixation and permeabilization led to an impairment of BrdU-staining. As additional support for this concept, BrdU-labelled MCMV was adsorbed to NIH/3T3 cells at 4 °C in the absence or presence of 10 µM TAT-I24. Cells were then washed with ice-cold medium followed by transfer to 37 °C and fixation and permeabilization 30 min post-cold release. In one setting, cells were additionally treated with pepsin for 20 min at 37 °C to degrade the peptide.
NIH/3T3 cells were seeded at a density of 4 × 10^4 cells/well into ibiTreat eight-well chambers (ibidi, Gräfelfing, Germany). Bromodeoxyuridine (BrdU)-labelled virus was adsorbed to cells in the absence or presence of 10 µM TAT-I24 as described before. Pepsin treatment was performed by incubation of cells after fixation, permeabilization and denaturation with Pepsin Reagent, Ready to Use, Antigen Retriever (Merck; Schnelldorf, Germany) for 20 min. Cells were then washed twice with 1xTBE followed by three washes with PBS. […]

MCMV viral DNA = MCMV viral DNA determined by ie1 PCR from RNA extracts; format: cell-based, murine cytomegalovirus
Protocol: The levels of viral DNA in the RNA extracts were also determined by PCR using the ie1 primer pair. In peptide-treated cells, the amount of viral DNA was about 60% compared to untreated cells. The amount of viral DNA declined in both settings between 2 and 8 h. […] This is in accordance with our earlier study using detection of the luciferase gene of MCMV strain delm157-luc rep.

[11] = system: host-cell transcripts in NIH/3T3 cells infected with UV-inactivated MCMV; experiment: Host-cell transcript levels in cells infected with UV-irradiated MCMV; settings: UV-inactivated MCMV MOI 2.5, 10 µM, 2 h post-infection, three independent experiments
MCMV [12] = experiment: Crystal violet staining of MCMV-infected NIH/3T3 cells (cytopathic effects); format: cell-based, murine cytomegalovirus
Protocol: as §2, with “1A). […] For all further investigations, 10 µM of TAT-I24 was therefore chosen to ensure efficient inhibition of MCMV infection.” for “1A).”
NIH/3T3 cells were seeded at a density of 2 × 10^4 cells/well of a 96-well plate and allowed to attach overnight. On the next day, cells were treated with increasing concentrations of TAT-I24 and infected with MCMV strain delm157-luc rep with centrifugal enhancement twice at 800× g for 15 min. After 48 h, cells were fixed with 4% formaldehyde and stained with 1% crystal violet solution for 30 min at room temperature followed by three times washing with water. Microscopic examination was performed using a Live Cell Video Microscope (Leica Microsystems; Wetzlar, Germany).

NIH/3T3 cells [13] = experiment: Cell viability assay (Cell Titer Glo 2.0); format: cell-based; settings: 10 µM, 48 h, Cell Titer Glo 2.0 luminescence, eight replicates per group
Protocol: NIH/3T3 cells were grown in CO2-independent medium supplemented with 10% fetal calf serum, 2 mM glutamine and 1% antibiotic-antimycotic (ThermoFisher; Darmstadt, Germany) and cultivated in a humidified atmosphere at 37 °C and passaged once a week. For determination of cell viability, NIH/3T3 cells were seeded at a density of 2 × 10^4 cells/well of a 96-well plate and treated with vehicle (DMSO) or 10 µM TAT-I24. After 48 h, cells were lysed using Cell Titer Glo 2.0 reagent (Promega; Mannheim, Germany) and luminescence recorded using a GloMax Multi instrument (Promega; Mannheim, Germany).

MCMV [14] = experiment: Luciferase assay of MCMV replication (strain delm157-luc rep) in NIH/3T3 cells; format: cell-based, murine cytomegalovirus; settings: NIH/3T3 cells infected with MCMV, 72 h post-infection, at the concentrations tested, three independent experiments in duplicates
Protocol: NIH/3T3 cells were seeded at a density of 2 × 10^4 cells/well of a 96-well plate and allowed to attach overnight. On the next day, cells were treated with various concentrations of peptides, or cidofovir either alone or in combination with increasing concentrations of TAT-I24 and infected with MCMV strain delm157-luc rep with centrifugal enhancement twice at 800× g for 15 min. After 72 h, cells were lysed and luciferase measured using luciferase assay system (Promega; Mannheim, Germany) using a GloMax Multi instrument (Promega; Mannheim, Germany).
Curve fittings and statistics were calculated using GraphPad Prism 8 (GraphPad Software, San Diego, CA, USA). Bliss synergy scores were calculated using SynergyFinder 2.0 software (https://synergyfinder.fimm.fi (accessed on 25 June 2022)).

[15] = MCMV MOI 1, 10 µM, 2 h post-infection
[16] = MCMV MOI 1, 10 µM, 4 h post-infection
[17] = MOI comparison experiment, MOI 1 with 10 µM, 2 h post-infection, two independent experiments

CLAFYACFC [I24]
binding to DNA (double-stranded DNA [1]): also binds DNA

GRKKRRCLAFYACFC [TAT-M26, six N-terminal amino-acid residues of the TAT peptide fused to I24]
Ccl5 expression, comparison of peptides [2]: significant reduction | Ccl7 expression, comparison of peptides [2]: significant reduction | Ifit1 expression, comparison of peptides [2]: significant reduction | ie1 transcript levels, comparison of peptides ([3]; four independent experiments): significant inhibitory effect

GRKKRRQRRRPPQ [TAT, reference compound]
ie1 transcript levels, comparison of peptides ([3]; four independent experiments): partial reduction | DNA binding (fluorescence reduction of SYBR Gold-stained plasmid DNA) (double-stranded DNA [4]): partial fluorescence reduction | replication of mouse cytomegalovirus (MCMV) [5]: partial inhibitory effect

GRKKRRQRRRPPQCLAFYACFC [TAT-I24, antiviral peptide, a fusion of the 9-mer peptide I24 and the TAT peptide]
Ccl5 transcript levels ([2]; MCMV MOI 1, 10 µM): reduction | Gadd45a mRNA levels, untreated vs peptide-treated cells ([2]; MCMV MOI 1, 10 µM): no difference | Herpud1 transcript levels, untreated vs peptide-treated cells ([2]; MCMV MOI 1, 10 µM): no differences | Top2a transcript levels ([2]; MCMV MOI 1, 10 µM): no significant effect | Ccl7 transcript levels [2, 15]: reduced | Cxcl10 transcript levels [2, 15]: reduced | Ifit1 transcript levels [2, 15]: significantly reduced | Nfkbia transcript levels [2, 15]: reduced | Ccl7 transcript levels [2, 16]: started to increase | Cxcl10 transcript levels [2, 16]: started to increase | Nfkbia mRNA levels [2, 16]: comparable between untreated and peptide-treated cells | Ifit1 mRNA levels ([2]; MCMV MOI 1, 10 µM, after 4 h): also increased in the presence of the peptide | Ccl5 expression, comparison of peptides [2]: significant reduction | Ccl7 expression, comparison of peptides [2]: significant reduction | Ifit1 expression, comparison of peptides [2]: significant reduction | inhibition of RSV [6]: Partial inhibition | replication of human cytomegalovirus [7]: inhibit replication | inhibition of HIV-1 [8]: Partial inhibition | replication of herpes simplex virus (herpes simplex virus): inhibit replication | replication of some adenoviruses (some adenoviruses): inhibit replication | reporter gene expression from a non-replicating baculovirus [9]: reduction of reporter gene expression | replication of SV40 polyomavirus (SV40 polyomavirus): inhibit replication | replication of vaccinia virus (vaccinia virus): inhibit replication | cell viability (NIH/3T3 cells [10]): does not affect cell viability | binding to DNA (double-stranded DNA [1]): binds DNA with high affinity | BrdU-labelled genomes seen in cells (BrdU-labelled MCMV DNA; 10 µM during adsorption at 4 °C, 30 min post-cold release, no pepsin): almost no BrdU-labelled genomes | BrdU-antibody staining after post-fixation pepsin treatment (BrdU-labelled MCMV DNA; 10 µM during adsorption, pepsin 20 min at 37 °C after fixation and permeabilization): clear appearance of a punctate pattern | reduction of ie1 transcript levels [3, 17]: 90% | expression of spliced late gene m129/131 ([3]; NIH/3T3, MCMV MOI 1, 10 µM): reduced | gene expression of M94 (late gene) ([3]; NIH/3T3, MCMV MOI 1, 10 µM): strongly inhibited | levels of m152 transcripts (early gene) ([3]; NIH/3T3, MCMV MOI 1, 10 µM): strongly reduced | m169 mRNA levels (early gene) ([3]; NIH/3T3, MCMV MOI 1, 10 µM): strongly reduced | reduction of ie1 transcript levels compared to untreated cells ([3]; NIH/3T3, MCMV MOI 1, 10 µM, 2 h post-infection, four independent experiments): more than 90% | ie1 transcript levels, comparison of peptides ([3]; four independent experiments): significant inhibitory effect | viral DNA (genome copies by ie1 PCR) (MCMV viral DNA; [17]): not reflected at the level of viral DNA | viral DNA after 24 h (MCMV viral DNA; NIH/3T3, MCMV MOI 1, 10 µM, 24 h post-infection): remained at background levels | amount of viral DNA compared to untreated cells (MCMV viral DNA; NIH/3T3, MCMV MOI 1, 10 µM, ie1 PCR, three independent experiments): about 60% | Ccl5 transcript levels [11]: significantly reduced | Ccl7 transcript levels [11]: significantly reduced | Cxcl10 transcript levels [11]: significantly reduced | effect on cell attachment and morphology (MCMV [12]; 20 µM): some effect on cell attachment and morphology | cytopathic effects caused by the virus infection (MCMV [12]; MCMV MOI 1, 48 h post-infection, increasing concentrations of TAT-I24, crystal violet staining): inhibited | cytotoxic effect (cell viability assay) (NIH/3T3 cells [13]): does not exert any cytotoxic effect | replication of mouse cytomegalovirus (MCMV) [5]: inhibit replication

RRRCLAFYACFC [TAT-M25, three amino-terminal arginine residues fused to I24]
antiviral activity (luciferase reporter gene expression) (MCMV [14]): lack of antiviral activity | DNA binding (fluorescence reduction of SYBR Gold-stained plasmid DNA) (double-stranded DNA [4]): reduced DNA binding

RRRPPQCLAFYACFC [TAT-M24, six C-terminal residues of the TAT peptide fused to I24]
antiviral activity (luciferase reporter gene expression) (MCMV [14]): lack of antiviral activity | DNA binding (fluorescence reduction of SYBR Gold-stained plasmid DNA) (double-stranded DNA [4]): reduced DNA binding
